Substitutions are numbered along the chain they refer to.
Columns and labels:
NUDT15 [1] = molecular target: T1, NUDT15 (Homo sapiens, UniProt Q9NV35, R139C); assay: DSF thermal shift of purified protein with […] compound; HA-R139C stabilization in cells; format: binding; settings: read-out: DSF thermal shift of purified protein with 50 μM compound; HA-R139C stabilizatio
T1 construct: full-length R139C
T1 sequence (Q9NV35 1-164 R139C): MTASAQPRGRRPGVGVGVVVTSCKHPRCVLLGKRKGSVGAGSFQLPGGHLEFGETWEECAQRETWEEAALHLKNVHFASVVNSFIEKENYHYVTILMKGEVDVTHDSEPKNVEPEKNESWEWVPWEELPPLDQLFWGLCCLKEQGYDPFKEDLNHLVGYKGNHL

NUDT15 [2] = molecular target: T2, NUDT15 (Homo sapiens, UniProt Q9NV35); assay: […] Å co-crystal structure; also enzyme-coupled malachite green inhibition assay and DSF; format: biochemical
T2 construct: full-length wild-type
T2 sequence (Q9NV35 1-164): T1 sequence (Q9NV35 1-164 R139C) with C139R

NUDT15 [3] = molecular target: T2, NUDT15; assay: enzyme-coupled malachite green assay with dGTP as substrate; format: biochemical

Nc1nc(S)c2ncn(C3CCCCC3)c2n1 [NSC56456, 2-amino-9-cyclohexyl-3H-purine-6-thione] showed a ΔTm at 50 µM (NUDT15 [1]) of 7 °C and an IC50 (NUDT15 [2]) of 383 nM.
CC(C)(c1ccccc1)n1cnc2c(=S)nc(N)[nH]c21 [TH8234, 2-amino-9-(2-phenylpropan-2-yl)-3H-purine-6(9H)-thione] showed an IC50 (NUDT15 [3]) of 375 nM.

Source: paper PMC11624193, “Coupling cellular drug-target engagement to downstream pharmacology with CeTEAM” (Nature Communications, 2024)
